The values that follow come from BindingDB's records for doi:10.1016/j.bioorg.2013.09.002 (Ewha Womans University, 2013).

Where a SMILES comes first, the peptide text is derived from it. The star is where a group is joined. Cbz = O=C(OCc1ccccc1)*; CH2F = FC*

One test deals with Procathepsin L (Homo sapiens, UniProt P07711). Put plainly: Cathepsin L Inhibition Assay. As to conditions: pH 5.5; 37 °C. On the procedure:
Inhibition of cathepsin L was assayed in reaction buffer (0.1M NaOAc-HCl, 1 mM EDTA, 0.1% β-mercaptoethanol, pH 5.5) containing 20 µM substrate and 4 nM cathepsin L. Z-FR-AMC was used as a substrate for […]. Cathepsin L was activated by incubation in assay buffer at 37 °C for 30 min prior to initiation of the reaction by addition of the substrate and test compound. The reaction mixture was then incubated at room temperature for 30 min with shaking. Fluorescence intensities were measured at 360 nm excitation and 450 nm emission wavelengths.

Test [1] has as its target T1, Calpain-1 catalytic subunit (Homo sapiens, UniProt P07384).
T1 sequence (P07384 whole entry): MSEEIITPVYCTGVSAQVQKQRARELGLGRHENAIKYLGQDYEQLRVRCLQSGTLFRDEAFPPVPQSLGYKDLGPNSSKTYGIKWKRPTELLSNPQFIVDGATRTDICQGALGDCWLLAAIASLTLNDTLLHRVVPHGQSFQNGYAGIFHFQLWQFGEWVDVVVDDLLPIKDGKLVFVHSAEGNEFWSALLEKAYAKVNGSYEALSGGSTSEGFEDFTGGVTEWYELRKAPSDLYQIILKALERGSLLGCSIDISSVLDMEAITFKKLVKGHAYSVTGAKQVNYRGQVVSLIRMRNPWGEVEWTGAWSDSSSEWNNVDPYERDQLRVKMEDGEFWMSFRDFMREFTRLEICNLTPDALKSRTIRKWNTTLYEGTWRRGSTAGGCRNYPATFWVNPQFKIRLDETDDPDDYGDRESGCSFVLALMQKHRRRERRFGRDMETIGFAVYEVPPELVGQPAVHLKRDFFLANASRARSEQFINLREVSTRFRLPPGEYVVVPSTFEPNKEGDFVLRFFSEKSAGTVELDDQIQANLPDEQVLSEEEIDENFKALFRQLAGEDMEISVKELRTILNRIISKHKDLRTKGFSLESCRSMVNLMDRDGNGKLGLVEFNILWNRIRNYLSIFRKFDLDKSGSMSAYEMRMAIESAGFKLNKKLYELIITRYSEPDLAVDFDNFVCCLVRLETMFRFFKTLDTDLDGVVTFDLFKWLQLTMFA
The test is described as follows: µ-Calpain Inhibition Assay. As to conditions: pH 7.5; 25 °C. The procedure:
The reaction was initiated by sequential addition of substrate A, µ-calpain, each compound, and finally a CaCl2 solution. The reaction mixture (100 µL) was incubated at room temperature for 30 min with shaking. Fluorescence intensities were measured at 320 nm excitation and 420 nm emission wavelengths.

Test [2] concerns the target T2, Calpain-2 catalytic subunit (Homo sapiens, UniProt P17655).
T2 sequence (P17655 whole entry): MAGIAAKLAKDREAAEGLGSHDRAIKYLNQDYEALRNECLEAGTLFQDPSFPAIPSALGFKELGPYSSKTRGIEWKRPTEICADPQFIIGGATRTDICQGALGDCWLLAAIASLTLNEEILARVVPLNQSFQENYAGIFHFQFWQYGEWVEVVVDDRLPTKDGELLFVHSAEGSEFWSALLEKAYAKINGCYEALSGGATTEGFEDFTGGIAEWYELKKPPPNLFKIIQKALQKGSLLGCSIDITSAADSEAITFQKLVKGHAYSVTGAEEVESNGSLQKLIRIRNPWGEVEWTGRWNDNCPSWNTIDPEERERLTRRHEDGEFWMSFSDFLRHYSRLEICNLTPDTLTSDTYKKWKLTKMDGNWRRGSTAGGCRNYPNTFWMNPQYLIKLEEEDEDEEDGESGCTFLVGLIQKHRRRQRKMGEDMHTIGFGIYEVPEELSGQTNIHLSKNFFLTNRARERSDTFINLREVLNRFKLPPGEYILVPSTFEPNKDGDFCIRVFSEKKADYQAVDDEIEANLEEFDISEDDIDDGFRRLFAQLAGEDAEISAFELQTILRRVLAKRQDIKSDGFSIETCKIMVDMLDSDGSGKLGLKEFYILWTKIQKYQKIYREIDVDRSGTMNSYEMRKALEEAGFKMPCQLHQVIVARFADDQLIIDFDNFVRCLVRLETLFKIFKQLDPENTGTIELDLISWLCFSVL
Put plainly: m-Calpain Inhibition Assay. As to conditions: pH 7.5; 25 °C. The procedure:
Inhibition of m-calpain was assayed in the reaction buffer (50 mM Tris-HCl, 100 mM NaCl, 5 mM β-mercaptoethanol, and 1 mM EDTA, pH 7.5) with 50 µM substrate B, 5 mM CaCl2 and 2.88 U/mL m-calpain. The reaction was initiated by sequential addition of substrate B, m-calpain, each compound, and finally a CaCl2 solution. The reaction mixture (100 µL) was incubated at room temperature for 30 min with shaking. Fluorescence intensities were measured at 320 nm excitation and 420 nm emission wavelengths. MDL28170 was used as a positive control for µ- and m-calpain inhibition.

Procathepsin L, sequence (P07711 whole entry): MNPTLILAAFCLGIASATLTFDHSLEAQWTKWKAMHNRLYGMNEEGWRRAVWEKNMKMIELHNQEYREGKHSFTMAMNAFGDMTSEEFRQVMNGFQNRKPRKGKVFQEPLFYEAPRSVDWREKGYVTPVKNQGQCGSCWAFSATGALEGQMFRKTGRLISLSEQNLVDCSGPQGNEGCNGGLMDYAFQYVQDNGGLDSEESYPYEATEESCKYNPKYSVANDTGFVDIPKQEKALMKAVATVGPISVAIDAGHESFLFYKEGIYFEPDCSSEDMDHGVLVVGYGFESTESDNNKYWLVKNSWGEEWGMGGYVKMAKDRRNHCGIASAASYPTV

Regarding `O=C(/C=C/c1ccco1)c1ccc(O)cc1O` [1-(2,4-Dihydroxyphenyl)-3-(furan-2-yl)propenone (10)], the IC50 – broadly, the concentration at which inhibition is half-maximal – against Procathepsin L is 90.5 µM; in test [1] it was 86.7 µM; in test [2], 25.4 µM.
For `O=C(/C=C/c1ccccn1)c1ccc(O)cc1O` [1-(2,4-Dihydroxyphenyl)-3-(pyridin-2-yl)propenone (8)] the same measures were > 100 µM, > 100 µM and > 100 µM.
For `O=C(/C=C/c1cccnc1)c1ccc(O)cc1O` [1-(2,4-Dihydroxyphenyl)-3-(pyridin-3-yl)propenone (7)], the IC50 (on Procathepsin L; in test [1]; in test [2]) was > 100 µM in each case.
Turning to `O=C(/C=C/c1ccncc1)c1ccc(O)cc1O` [1-(2,4-Dihydroxyphenyl)-3-(pyridin-4-yl)propenone (6)], the half-maximal inhibitory concentration (IC50) was 44.4 µM against Procathepsin L, > 100 µM in test [1] and > 100 µM in test [2].
For `O=C(/C=C/c1cccs1)c1ccc(O)cc1O` [1-(2,4-Dihydroxyphenyl)-3-(thiophen-2-yl)propenone (9)], the results for the IC50 (against Procathepsin L; in test [1]; in test [2]) were 53 µM, 56.2 µM and 39.9 µM, respectively.
For the compound `O=C(/C=C/c1ccco1)c1cc(O)cc(O)c1` [1-(3,5-Dihydroxyphenyl)-3-(furan-2-yl)propenone (21)], the IC50 (at Procathepsin L; in test [1]; in test [2]) was > 100 µM throughout.
In the case of `O=C(/C=C/c1ccoc1)c1cc(O)cc(O)c1` [1-(3,5-Dihydroxyphenyl)-3-(furan-3-yl)propenone (24)], the IC50 (against Procathepsin L; in test [1]; in test [2]) was > 100 µM throughout.
In the case of `O=C(/C=C/c1cccs1)c1cc(O)cc(O)c1` [1-(3,5-Dihydroxyphenyl)-3-(thiophen-2-yl)propenone (20)], the IC50 (at Procathepsin L; in test [1]; in test [2]) was > 100 µM in each case.
Turning to `O=C(/C=C/c1ccsc1)c1cc(O)cc(O)c1` [1-(3,5-Dihydroxyphenyl)-3-(thiophen-3-yl)propenone (23)], the IC50 against Procathepsin L is > 100 µM; in test [1] it was > 100 µM; in test [2], 97.3 µM.
For the compound `O=C(/C=C/c1ccccc1)c1cc(O)cc(O)c1` [1-(3,5-Dihydroxyphenyl)-3-phenylpropenone (22)], the IC50 (against Procathepsin L; in test [1]; in test [2]) was > 100 µM each time.
On to `O=C(/C=C/c1ccc(O)cc1O)c1ccco1` [3-(2,4-Dihydroxyphenyl)-1-(furan-2-yl)propenone (14)], for which the values for the IC50 (against Procathepsin L; in test [1]; in test [2]) were 2.87 µM, > 100 µM and > 100 µM, respectively.
With `O=C(/C=C/c1ccc(O)cc1O)c1cccs1` [3-(2,4-Dihydroxyphenyl)-1-(thiophen-2-yl)propenone (13)], the IC50 at Procathepsin L is 2.8 µM; in test [1], > 100 µM; in test [2] it was 60.2 µM.
Consider `CCCNC(=O)[C@H]1O[C@@H]1C(=O)N[C@H](C(=O)N1CCC[C@H]1C(=O)O)[C@@H](C)CC` [CA074], for which the IC50 in test [1] and in test [2] was > 100 µM in each case.
Take `O=C(NC(Cc1ccccc1)C(=O)NC(Cc1ccccc1)C(=O)CF)OCc1ccccc1` (stereo not drawn) [benzyl N-[1-[(4-fluoro-3-oxo-1-phenylbutan-2-yl)amino]-1-oxo-3-phenylpropan-2-yl]carbamate] (Cbz-Phe-Phe-CH2F; configuration not given here): the half-maximal inhibitory concentration (IC50) in test [1] worked out at 0.397 µM; in test [2], 0.418 µM.
As to `CC(C)C(NC(=O)OCc1ccccc1)C(=O)NC(C=O)Cc1ccccc1` [benzyl N-[(1S)-2-methyl-1-[(1-oxo-3-phenylpropan-2-yl)carbamoyl]propyl]carbamate] (Cbz-Val-Phe-aldehyde; configuration not given here), in test [2], the IC50 is 0.15 µM.
